Measured values taken from article PMC5736175, “Nicotinic alpha 7 receptor agonists EVP-6124 and BMS-933043, attenuate scopolamine-induced deficits in visuo-spatial paired associates learning” (PLoS ONE, 2017).
“And” between values parts separate entries of the source, which are not always exact repeats. Equal entries are not always repeated.

What was measured:
[1] = tested on: scopolamine-treated cynomolgus monkeys; assay: Scopolamine-induced impairment of vsPAL task performance, treatment + scopolamine; type: in vivo, cynomolgus monkeys (Macaca Fasicularis); details: for % Completion / Average Response Latency (Avg Rsp Lat) / Eventual Correct, 3 Stimuli / Eventual Correct, 4 Stimuli / Eventual Correct, Overall Mean % Correct / Initial Correct, 3 Stimuli / Initial Correct, 4 Stimuli / Initial Correct, Overall Mean % Correct / Initial correct, 2 Stimuli / Eventual Correct, 2 Stimuli: im + Scopolamine
human nAChR α7 = tested on: human nAChR α7; design: method as in PMID 27467081; details: intrinsic activity; HEK293 cells expressing human nAChR α7; cited from earlier work
[2] = Plasma concentration in vsPAL subjects immediately after completion of testing (LC-MS/MS); details: for concentration at 69.8 min: cynomolgus monkey, in vivo
Experimental: For all compounds, plasma pharmacokinetic studies were conducted in a separate cohort of cynomolgus monkeys (N = 2–3 subjects per dose) before beginning vsPAL testing to help guide dose selection. Blood samples were obtained with the animals awake and sitting in a primate chair. For most test sessions with BMS-933043 and EVP-6124, plasma samples were also taken from a subset of vsPAL subjects (N = 4–5) immediately after completion of testing (mean (SD) sample collection time = 69.8 (9.8) min post injection).
Plasma concentrations of test compounds were determined using LC-MS/MS assays. In brief, 50 μL plasma and sample containing compounds was extracted by protein precipitation method with 150 μL acetonitrile containing an internal standard. A 5 μL sample of supernatant was injected into the LC-MS/MS system. Analytes were separated by reversed phase chromatography and detection of each analyte was achieved through selected reaction monitoring mode of mass spectrometry. Samples were quantified by calculated peak area ratio of analyte and internal standard against a calibration curve.

[3] = BMS-933043 0.3 mg/kg, individual animals, 0.3 mg/kg
[4] = BMS-933043 1.0 mg/kg, group MEAN
[5] = BMS-933043 1.0 mg/kg, individual animals, 1 mg/kg
[6] = all doses of the study, for EVP-6124 study (1)
[7] = compound 0.03 mg/kg i.m. + Scopolamine
[8] = compound 0.10 mg/kg i.m. + Scopolamine
[9] = compound 0.30 mg/kg i.m. + Scopolamine
[10] = compound 1.00 mg/kg i.m. + Scopolamine

Compound: c1cn(-c2cc(NC3=NC[C@@]4(CN5CCC4CC5)O3)ncn2)cn1 [BMS-933043, (2R)-N-(6-(1H-imidazol-1-yl)-4-pyrimidinyl)-4'H-spiro[4-azabicyclo[2.2.2]octane-2,5'-[1, 3]oxazol]-2'-amine]
- % Completion [1, 3]: 86.3% and 100.0% and 97.7% and 32.1% and 95.8% and 95.1%
- Average Response Latency (Avg Rsp Lat) [1, 3]: 1690.5 ms and 1666.2 ms and 1269.7 ms and 2215.8 ms and 1344.9 ms and 1971.0 ms and 2262.1 ms
- Eventual Correct, 3 Stimuli [1, 3]: 100.0% and 60.0%
- Eventual Correct, 4 Stimuli [1, 3]: 80.0% and 100.0% and 90.0%
- Eventual Correct, Overall Mean % Correct [1, 3]: 93.3% and 100.0% and 80.0% and 96.7%
- Initial Correct, 3 Stimuli [1, 3]: 80.0% and 100.0% and 60.0% and 10.0% and 90.0%
- Initial Correct, 4 Stimuli [1, 3]: 60.0% and 40.0% and 50.0% and 30.0%
- Initial Correct, Overall Mean % Correct [1, 3]: 80.0% and 73.3% and 83.3% and 30.0% and 60.0%
- Initial correct, 2 Stimuli [1, 3]: 100.0% and 50.0% and 90.0%
- % Completion [1, 4]: 71.6%
- Average Response Latency (Avg Rsp Lat) [1, 4]: 2029.0 ms
- Eventual Correct, 2 Stimuli [1, 4]: 100.0%
- Eventual Correct, 3 Stimuli [1, 4]: 97.1%
- Eventual Correct, 4 Stimuli [1, 4]: 65.7%
- Eventual Correct, Overall Mean % Correct [1, 4]: 87.6%
- Initial Correct, 3 Stimuli [1, 4]: 71.4%
- Initial Correct, 4 Stimuli [1, 4]: 41.4%
- Initial Correct, Overall Mean % Correct [1, 4]: 69.5%
- Initial correct, 2 Stimuli [1, 4]: 95.7%
- Eventual Correct, 2 Stimuli ([1]; BMS-933043 1.0 mg/kg, individual animals): 100.0%
- % Completion [1, 5]: 72.7% and 100.0% and 68.1% and 56.9% and 46.1% and 57.8%
- Average Response Latency (Avg Rsp Lat) [1, 5]: 2028.1 ms and 1536.5 ms and 1283.2 ms and 2484.6 ms and 1934.3 ms and 2639.0 ms and 2297.3 ms
- Eventual Correct, 3 Stimuli [1, 5]: 90.0% and 100.0%
- Eventual Correct, 4 Stimuli [1, 5]: 70.0% and 100.0% and 40.0% and 50.0% and 30.0%
- Eventual Correct, Overall Mean % Correct [1, 5]: 86.7% and 96.7% and 80.0% and 83.3% and 76.7% and 90.0% and 100.0%
- Initial Correct, 3 Stimuli [1, 5]: 50.0% and 80.0% and 90.0% and 70.0%
- Initial Correct, 4 Stimuli [1, 5]: 40.0% and 60.0% and 20.0% and 30.0% and 80.0%
- Initial Correct, Overall Mean % Correct [1, 5]: 63.3% and 76.7% and 60.0% and 86.7%
- Initial correct, 2 Stimuli [1, 5]: 100.0% and 90.0%
- Holm-Sidak Post-Hoc, Treatment+Scopolamine differs from Vehicle+Scopolamine: percent correct on initial attempt, 3-stimuli ([1]; all doses of the study): n.s.
- Holm-Sidak Post-Hoc, Treatment+Scopolamine differs from Vehicle+Scopolamine: Choice Response Latency [1, 6]: n.s.
- Holm-Sidak Post-Hoc, Treatment+Scopolamine differs from Vehicle+Scopolamine: Percent Task Completed [1, 6]: n.s.
- Holm-Sidak Post-Hoc, Treatment+Scopolamine differs from Vehicle+Scopolamine: percent correct on initial attempt, 2-stimuli [1, 6]: n.s.
- Holm-Sidak Post-Hoc, Treatment+Scopolamine differs from Vehicle+Scopolamine: percent correct on initial attempt, 4 stimuli [1, 6]: n.s.
- Percent Correct on Initial Attempt (SEM), 2 stimuli [1, 7]: 90.0% (3.1%)
- Percent Correct on Initial Attempt (SEM), 3 stimuli [1, 7]: 58.6% (8.0%)
- Percent Correct on Initial Attempt (SEM), 4 stimuli [1, 7]: 38.3% (9.8%)
- Percent Correct on Initial Attempt (SEM), 2 stimuli [1, 8]: 88.6% (3.4%)
- Percent Correct on Initial Attempt (SEM), 3 stimuli [1, 8]: 75.7% (5.7%)
- Percent Correct on Initial Attempt (SEM), 4 stimuli [1, 8]: 35.7% (8.1%)
- Percent Correct on Initial Attempt (SEM), 2 stimuli [1, 9]: 91.4% (7.0%)
- Percent Correct on Initial Attempt (SEM), 3 stimuli [1, 9]: 68.6% (11.2%)
- Percent Correct on Initial Attempt (SEM), 4 stimuli [1, 9]: 45.0% (5.6%)
- Percent Correct on Initial Attempt (SEM), 2 stimuli [1, 10]: 95.7% (2.0%)
- Percent Correct on Initial Attempt (SEM), 3 stimuli [1, 10]: 71.4% (5.9%)
- Percent Correct on Initial Attempt (SEM), 4 stimuli [1, 10]: 41.4% (8.3%)
- dose/exposure range across which efficacy was retained ([1]; eventual accuracy, scopolamine vsPAL): ≥ 10 fold
- Cohen's D values at maximally efficacious doses ([1]; large treatment effect sizes): > 8
- net charge relative to acetylcholine (human nAChR α7): 78%
- peak current response relative to acetylcholine (human nAChR α7): 24%
- nM total compound in plasma post session ([2]; 0.03 mg/kg i.m., individual subjects): 14.6 nM and 11.9 nM and 13.1 nM
- nM total compound in plasma post session ([2]; 0.10 mg/kg i.m., individual subjects): 37.9 nM and 51.3 nM and 45.6 nM
- nM total compound in plasma post session ([2]; 0.30 mg/kg i.m., individual subjects): 156 nM and 134 nM and 143 nM
- nM total compound in plasma post session ([2]; 1.00 mg/kg i.m., individual subjects): 414 nM and 530 nM and 413 nM
- concentration at 69.8 min ([2]; 0.03 mg/kg, nM total compound in plasma post session, 0.03 mg/kg i.m., individual subjects): 13.4 nM
- concentration at 69.8 min ([2]; 0.03 mg/kg, nM total compound in plasma post session, 0.03 mg/kg i.m., mean 69.8 min post injection, group mean): 13.3 nM
- concentration at 69.8 min ([2]; 0.1 mg/kg, nM total compound in plasma post session, 0.10 mg/kg i.m., individual subjects): 56.3 nM
- concentration at 69.8 min ([2]; 0.1 mg/kg, nM total compound in plasma post session, 0.10 mg/kg i.m., mean 69.8 min post injection, group mean): 47.8 nM
- concentration at 69.8 min ([2]; 0.3 mg/kg, nM total compound in plasma post session, 0.30 mg/kg i.m., individual subjects): 125 nM
- concentration at 69.8 min ([2]; 0.3 mg/kg, nM total compound in plasma post session, 0.30 mg/kg i.m., mean 69.8 min post injection, group mean): 140 nM
- concentration at 69.8 min ([2]; 1 mg/kg, nM total compound in plasma post session, 1.00 mg/kg i.m., individual subjects): 614 nM
- concentration at 69.8 min ([2]; 1 mg/kg, nM total compound in plasma post session, 1.00 mg/kg i.m., mean 69.8 min post injection, group mean): 493 nM
- concentration at 69.8 min ([2]; 1 mg/kg, plasma concentration at which efficacy was lost, scopolamine vsPAL model): 493 nM
- concentration at 69.8 min ([2]; mean plasma concentration at which improved eventual accuracy was observed, experimental subjects on completion of behavioral testing, efficacious doses): 13.3 to 140 nM
